No end group written: not given here.
Tests used:
tight junction = assay: activity as tight junction regulators; conditions: for activity as tight junction regulators: fragment alone
From the text: See US 2016/0022760, which is hereby incorporated by reference in its entirety. […] It is believed that an aminopeptidase located within the brush borders of the lumen surface may create larazotide-derived fragments, including fragments missing N-terminal glycine residues.

[1] = tested on: intestinal disease symptoms; conditions: clinical trials, cited from earlier work

Substance | activity as tight junction regulators (tight junction) | activity at reducing intestinal disease symptoms ([1]; higher doses (e.g., 1 mg and 2 mg doses)) | benefit at reducing intestinal disease symptoms ([1]; lower doses (e.g., 0.5 mg dose)) | activity as tight junction regulator (tight junction; fragments GVLVQPG and VLVQPG mixed with full length larazotide)
GVLVQPG [larazotide-derived fragment missing N-terminal glycine residue] | largely inactive | – | – | –
VLVQPG [larazotide-derived fragment missing N-terminal glycine residues] | largely inactive | – | – | –
GGVLVQPG [Larazotide] | – | attenuation of activity, or no activity at all | benefit | completely abolished

Reference: patent US20210069286A1, “COMPOSITIONS AND METHODS FOR TREATING OR PREVENTING HYPERGLYCEMIA, INSULIN RESISTANCE, AND […] DAMAGE” (9 Meters Biopharma, Inc., priority 2018, published 2021)
